According to US20260070889A1, “5-PYRIDINE-1H-INDAZOLE COMPOUND, PHARMACEUTICAL COMPOSITION, AND USE” (CHINA PHARMACEUTICAL UNIVERSITY, priority 2022, published 2026):
Like-named read-outs stand apart in the source and are kept apart here.

What was measured:
CLK1 = CLK1 (Homo sapiens, UniProt P49759); assay: In vitro kinase inhibition, ADP-Glo enzyme activity assay; assay type: biochemical; details: read-out: Enzymatic activity (IC50) CLK1
Experimental: (§1) (1) The positive drug was diluted in a 4-fold gradient with DMSO in a dilution plate, with the final initial concentrations of the compound being 1 & 0.02 & 0.1 μM.
(§2) (2) The compound was diluted 50-fold into the 1× kinase reaction buffer and oscillated on an oscillator for 20 min.
(§3) (3) The 2× kinase was prepared using the 1× enzyme reaction buffer.
(§4) (4) 2 μL of the kinase was added per well to the reaction plate.
(§5) (5) 1 μL of the compound diluted in the buffer was added to each well. The plate was sealed with a plate-sealing film, centrifuged at 1000 rpm for 60 s, and incubated at 25° C. for 10 min.
(§6) (6) 4× ATP & sub mixture was prepared using the 1× enzyme reaction buffer, and 1 μL of the 4× ATP & sub mixture was added to the reaction plate.
(§7) (7) The plate was sealed with a plate-sealing film, centrifuged at 1000 rpm for 60 s, and incubated at 25° C. for 60 min.
(§8) (8) 4 μL of ADP-Glo was transferred to the 384 reaction plate, and the plate was centrifuged at 1000 rpm for 1 min and incubated at 25° C. for 40 min.
(§9) (9) 8 μL of Detection solution was transferred to the 384 reaction plate, and the plate was centrifuged at 1000 rpm for 1 min and incubated at 25° C. for 40 min.
(§10) (10) The RLU (relative luminescence unit) signal was read using a BMG multifunctional microplate reader, and the signal intensity was used to characterize the degree of the kinase activity.
(§11) • (1) the ratio of each well was calculated; • (2) the inhibition rate was calculated as follows:
(§12) compound inhibition rate (% inh)=100%−(compound−positive control)/(negative control−positive control)×100% • (3) the IC50 was calculated, and the inhibition curves of the compounds were plotted: • the following nonlinear fitting formula was used to obtain the IC50 (half maximal inhibitory concentration) of the compounds: Graphpad 7.0 software was used for data analysis.
(§13) [formula] • X: log value of the concentration of the compound, Y: inhibition rate (% inhibition).

CLK3 = CLK3 (Homo sapiens, UniProt P49761); assay: as above; assay type: biochemical
Experimental: as §1, §2, §3, §4, §5, §6, §7, §8, §9, §10, §11, §12, §13

DYRK1A = DYRK1A (Homo sapiens, UniProt Q13627); assay: as above; assay type: biochemical
Experimental: as §1, §2, §3, §4, §5, §6, §7, §8, §9, §10, §11, §12, §13

CLK4 = CLK4 (Homo sapiens, UniProt Q9HAZ1); assay: as above; assay type: biochemical; details: read-out: Enzymatic activity (IC50) CLK4
Experimental: as §1, §2, §3, §4, §5, §6, §7, §8, §9, §10, §11, §12, §13

CLK2 = CLK2 (Homo sapiens, UniProt P49760); assay: as above; assay type: biochemical
Experimental: as §1, §2, §3, §4, §5, §6, §7, §8, §9, §10, §11, §12, §13

ACLT model rats = assay: In vivo pharmacodynamics in osteoarthritis rats, RT-qPCR of cartilage; design: species or system rat; details: for expression of ADAMTS5 in cartilage (RT-qPCR) / expression of IHH in cartilage (RT-qPCR) / expression of MMP3 in cartilage (RT-qPCR) / expression of MMP13 in cartilage (RT-qPCR): week 5, versus model group
Experimental: 1. 40 rats were evenly divided into 4 groups, namely, Control (normal rats injected with physiological saline into the joint cavity), Model (ACLT Model rats injected with physiological saline into the joint cavity), low-dose administration group (ACLT Model rats injected with LH020 (1.5 μg/kg) into the joint cavity), and high-dose administration group (ACLT Model rats injected with LH020 (6 μg/kg) into the joint cavity).
2. Knee osteoarthritis was induced by resection of anterior cruciate ligament of the rats (ACLT model).
3. The first week after surgery, physiological saline or LH-020 (1.5 μg/kg. 6 μg/kg) was injected into the joint cavity.
4. Week 5 after administration, cartilage was collected, and the expression of cartilage-associated proteases (MMP3, MMP13, ADAMTS5, IHH, etc.) was detected by RT-qPCR.

[1] = related art statement; cited from earlier work
[2] = read-out: Enzymatic activity (IC50) CLK3
[3] = read-out: Enzymatic activity (IC50) DYRK1A
[4] = read-out: Enzymatic activity (IC50) CLK2
[5] = high-dose group 6 μg/kg into the joint cavity, effect superior to low-dose group
[6] = low-dose group 1.5 μg/kg into the joint cavity

Chain of CLK2 (P49760 whole entry): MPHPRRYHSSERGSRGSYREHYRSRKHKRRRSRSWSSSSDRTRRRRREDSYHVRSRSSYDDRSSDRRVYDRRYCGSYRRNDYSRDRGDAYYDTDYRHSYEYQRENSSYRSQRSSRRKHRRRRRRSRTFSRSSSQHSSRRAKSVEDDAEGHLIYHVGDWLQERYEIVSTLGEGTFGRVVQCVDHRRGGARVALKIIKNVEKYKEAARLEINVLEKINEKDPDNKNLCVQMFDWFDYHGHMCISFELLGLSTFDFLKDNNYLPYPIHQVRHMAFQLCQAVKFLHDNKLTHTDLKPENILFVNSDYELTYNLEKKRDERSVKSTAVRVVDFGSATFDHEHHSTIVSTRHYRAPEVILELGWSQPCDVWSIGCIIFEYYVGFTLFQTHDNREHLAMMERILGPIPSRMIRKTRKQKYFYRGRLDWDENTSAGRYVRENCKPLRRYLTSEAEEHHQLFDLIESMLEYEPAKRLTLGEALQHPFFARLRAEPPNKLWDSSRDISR
Chain of CLK4 (Q9HAZ1 whole entry): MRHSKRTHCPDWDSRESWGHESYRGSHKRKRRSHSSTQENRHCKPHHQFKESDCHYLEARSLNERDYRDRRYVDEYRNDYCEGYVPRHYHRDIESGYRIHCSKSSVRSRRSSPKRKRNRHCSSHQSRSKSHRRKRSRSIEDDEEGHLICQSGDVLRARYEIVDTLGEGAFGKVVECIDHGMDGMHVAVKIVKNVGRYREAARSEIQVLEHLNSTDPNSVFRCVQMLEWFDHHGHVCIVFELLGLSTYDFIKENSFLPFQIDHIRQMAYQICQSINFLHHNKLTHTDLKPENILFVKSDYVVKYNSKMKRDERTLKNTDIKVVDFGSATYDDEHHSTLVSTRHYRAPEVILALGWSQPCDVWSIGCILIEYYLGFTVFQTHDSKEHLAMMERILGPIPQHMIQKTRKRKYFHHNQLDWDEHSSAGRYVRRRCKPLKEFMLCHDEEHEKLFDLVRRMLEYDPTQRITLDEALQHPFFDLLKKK
Chain of CLK1 (P49759 whole entry): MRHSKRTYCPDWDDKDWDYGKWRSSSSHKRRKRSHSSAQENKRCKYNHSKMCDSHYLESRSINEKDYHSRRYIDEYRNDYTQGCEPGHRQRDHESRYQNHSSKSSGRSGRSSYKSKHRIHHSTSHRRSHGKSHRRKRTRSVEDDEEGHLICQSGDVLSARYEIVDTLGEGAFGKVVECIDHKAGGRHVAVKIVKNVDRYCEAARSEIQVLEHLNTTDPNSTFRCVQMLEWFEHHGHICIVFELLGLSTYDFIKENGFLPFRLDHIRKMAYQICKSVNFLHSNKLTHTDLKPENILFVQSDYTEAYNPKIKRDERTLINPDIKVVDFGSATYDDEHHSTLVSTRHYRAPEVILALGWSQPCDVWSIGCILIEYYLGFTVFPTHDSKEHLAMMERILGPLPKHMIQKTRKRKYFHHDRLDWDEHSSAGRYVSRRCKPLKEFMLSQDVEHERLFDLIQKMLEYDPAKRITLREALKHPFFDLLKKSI
Chain of CLK3 (P49761 whole entry): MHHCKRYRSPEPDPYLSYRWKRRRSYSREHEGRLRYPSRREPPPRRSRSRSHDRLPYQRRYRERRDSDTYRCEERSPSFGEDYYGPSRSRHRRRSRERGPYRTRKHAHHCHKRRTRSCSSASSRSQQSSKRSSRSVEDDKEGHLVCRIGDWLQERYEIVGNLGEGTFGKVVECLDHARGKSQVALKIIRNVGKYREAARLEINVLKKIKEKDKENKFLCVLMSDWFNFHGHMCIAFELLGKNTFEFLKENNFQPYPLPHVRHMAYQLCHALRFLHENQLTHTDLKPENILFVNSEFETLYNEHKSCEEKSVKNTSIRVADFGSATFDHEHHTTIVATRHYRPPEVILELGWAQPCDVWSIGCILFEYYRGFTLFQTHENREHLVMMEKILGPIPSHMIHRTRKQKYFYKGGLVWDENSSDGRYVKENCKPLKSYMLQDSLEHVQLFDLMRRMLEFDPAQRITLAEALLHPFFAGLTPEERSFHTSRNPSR

IC50 (CLK1) [µM] | IC50 (CLK3; [2]) [µM] | IC50 (DYRK1A; [3]) [µM] | IC50 (CLK4) [µM] | IC50 (CLK2; [4]) [µM] | SMILES | other results
< 0.01 | < 0.01 | 0.01 to 0.05 | 0.05 to 0.1 | < 0.01 | CC(C)CC(=O)Nc1cncc(-c2ccc3[nH]nc(-c4nc(=O)c5ccccc5[nH]4)c3c2)c1 [LH-001] | 
< 0.01 | < 0.01 | 0.05 to 0.1 | > 0.1 | < 0.01 | O=C(CC1CC1)Nc1cncc(-c2ccc3[nH]nc(-c4nc(=O)c5ccccc5[nH]4)c3c2)c1 [LH-003] | 
< 0.01 | 0.01 to 0.05 | 0.01 to 0.05 | 0.05 to 0.1 | 0.01 to 0.05 | O=C(Nc1cncc(-c2ccc3[nH]nc(-c4nc(=O)c5ccccc5[nH]4)c3c2)c1)C1CCCC1 [LH-004] | 
0.05 to 0.1 | 0.05 to 0.1 | 0.01 to 0.05 | 0.01 to 0.05 | 0.01 to 0.05 | O=C(CC1CCCCC1)Nc1cncc(-c2ccc3[nH]nc(-c4nc(=O)c5ccccc5[nH]4)c3c2)c1 [LH-005] | 
0.01 to 0.05 | 0.05 to 0.1 | 0.01 to 0.05 | 0.01 to 0.05 | 0.01 to 0.05 | O=c1nc(-c2n[nH]c3ccc(-c4cncc(NCC5CCCCC5)c4)cc23)[nH]c2ccccc12 [LH-006] | 
< 0.01 | < 0.01 | < 0.01 | 0.01 to 0.05 | < 0.01 | O=c1nc(-c2n[nH]c3ccc(-c4cncc(CN5CCC(F)(F)C5)c4)cc23)[nH]c2ccccc12 [LH-009] | 
0.01 to 0.05 | 0.01 to 0.05 | 0.01 to 0.05 | > 0.1 | < 0.01 | O=c1nc(-c2n[nH]c3ccc(-c4cccnc4)cc23)[nH]c2ccccc12 [LH-010] | 
0.05 to 0.1 | 0.05 to 0.1 | 0.05 to 0.1 | > 0.1 | < 0.01 | CN(C)Cc1cncc(-c2ccc3[nH]nc(-c4nc(=O)c5ccccc5[nH]4)c3c2)c1 [LH-011] | 
0.01 to 0.05 | 0.01 to 0.05 | < 0.01 | < 0.01 | < 0.01 | CC(C)(C)C(=O)Nc1cncc(-c2ccc3[nH]nc(-c4nc(=O)c5ccccc5[nH]4)c3c2)c1 [LH-015] | 
< 0.01 | 0.01 to 0.05 | 0.01 to 0.05 | 0.01 to 0.05 | < 0.01 | O=C(Nc1cncc(-c2ccc3[nH]nc(-c4nc(=O)c5ccccc5[nH]4)c3c2)c1)C1CC(F)(F)C1 [LH-016] | 
< 0.01 | > 0.1 | < 0.01 | 0.05 to 0.1 | < 0.01 | CCS(=O)(=O)Nc1cncc(-c2ccc3[nH]nc(-c4nc(=O)c5ccccc5[nH]4)c3c2)c1 [LH-017] | 
0.05 to 0.1 | 0.01 to 0.05 | < 0.01 | < 0.01 | < 0.01 | O=c1nc(-c2n[nH]c3ccc(-c4cncc(O)c4)cc23)[nH]c2ccccc12 [LH-018] | 
< 0.01 | > 0.1 | 0.01 to 0.05 | 0.05 to 0.1 | < 0.01 | CN1CCN(Cc2cncc(-c3ccc4[nH]nc(-c5nc(=O)c6ccccc6[nH]5)c4c3)c2)CC1 [LH-019] | 
< 0.01 | 0.05 to 0.1 | < 0.01 | 0.01 to 0.05 | < 0.01 | CC(C)C[C@H](N)COc1cncc(-c2ccc3[nH]nc(-c4nc(=O)c5ccccc5[nH]4)c3c2)c1 [LH-020] | selectivity index for CLK3 (CLK3; CLK3 versus CLK2): 41.5; IC50 (CLK3; read-out: IC50 for CLK3): 0.081 µM; IC50 (DYRK1A; read-out: IC50 for DYRK1A): 0.003 µM; IC50 (CLK2; read-out: IC50 for CLK2): 0.002 µM; chondroprotective effect (ACLT model rats; ACLT model rats, 1.5 and 6 μg/kg into the joint cavity): significant chondroprotective effect; expression of ADAMTS5 in cartilage (RT-qPCR) (ACLT model rats; [5]): significantly down-regulate; expression of IHH in cartilage (RT-qPCR) (ACLT model rats; [5]): significantly down-regulate; expression of MMP3 in cartilage (RT-qPCR) (ACLT model rats; [5]): significantly down-regulate; expression of MMP13 in cartilage (RT-qPCR) (ACLT model rats; [5]): significantly down-regulate; expression of ADAMTS5 in cartilage (RT-qPCR) (ACLT model rats; [6]): significantly down-regulate; expression of IHH in cartilage (RT-qPCR) (ACLT model rats; [6]): significantly down-regulate; expression of MMP3 in cartilage (RT-qPCR) (ACLT model rats; [6]): significantly down-regulate; expression of MMP13 in cartilage (RT-qPCR) (ACLT model rats; [6]): significantly down-regulate
< 0.01 | < 0.01 | < 0.01 | 0.01 to 0.05 | 0.01 to 0.05 | CC(C)C[C@H](N)COc1cncc(-c2ccc3[nH]nc(-c4nc(=O)c5ccncc5[nH]4)c3c2)c1 [LH-037] | 
0.05 to 0.1 | < 0.01 | 0.01 to 0.05 | 0.05 to 0.1 | 0.01 to 0.05 | CC(C)CC(=O)Nc1cncc(-c2ccc3[nH]nc(-c4cccnc4)c3c2)c1 [LH-039] | 
0.05 to 0.1 | 0.01 to 0.05 | < 0.01 | < 0.01 | < 0.01 | CC(C)CC(=O)Nc1cncc(-c2ccc3[nH]nc(-c4ccncc4)c3c2)c1 [LH-040] | 
0.01 to 0.05 | < 0.01 | 0.01 to 0.05 | 0.01 to 0.05 | < 0.01 | CC(C)CC(=O)Nc1cncc(-c2ccc3[nH]nc(-c4ccc5ocnc5c4)c3c2)c1 [LH-041] | 
< 0.01 | < 0.01 | < 0.01 | 0.01 to 0.05 | < 0.01 | CC(C)CC(=O)Nc1cncc(-c2ccc3[nH]nc(C4=NCc5ccccc5N4)c3c2)c1 [LH-048] | 
0.05 to 0.1 | 0.01 to 0.05 | < 0.01 | > 0.1 | < 0.01 | FC1(F)CCN(Cc2cncc(-c3ccc4[nH]nc(C5=NCc6ccccc6N5)c4c3)c2)C1 [LH-049] | 
 |  |  |  |  | CC(C)CC(=O)Nc1cncc(-c2ccc3[nH]nc(-c4nc5c(-c6cccc(F)c6)cncc5[nH]4)c3c2)c1 [SM04690] | water solubility [1]: poor
